Data reported in the supplement of paper PMC4862054.
Each block holds one molecule with its values, some of them ahead of it.

Experiments:
[1] = system: HCC1937; conditions: 72 h
Outline: (§1)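 For viability, cells received 2.5 µl CellTiter-Blue for 2 h at 37 °C and fluorescence was read at 560/590 nm. Before this, breast cancer cell lines in 20 µl suspension had been incubated for 72 h on 384-well plates pre-loaded with compound dissolved in 5 µl medium. EC50 was obtained from a percent-inhibition dose-response fit censored at the highest concentration, after normalisation of each plate to vehicle and a positive kill control; rows with a zero drug sensitivity score were discarded.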

[2] = system: MDA-MB-436; conditions: 72 h
Outline: as §1

[3] = system: Hs578T; conditions: 72 h
Procedure: (§2)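 Drug sensitivity and resistance testing (DSRT) of breast cancer cell lines in 384-well plates, 5 concentrations in 10-fold dilutions over a compound-specific 10,000-fold range. After 72 h, cytotoxicity was read by CellTox Green fluorescence and viability by CellTiter-Glo luminescence (multiplexed), normalised to DMSO and benzethonium chloride controls. EC50 is the inflection point of the fitted dose-response curve (bottom asymptote free, so it can be relative for partial curves) and is censored at the highest tested concentration. Rows with DSS 0 (no meaningful response) were excluded.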

[4] = system: HCC1937; assay: drug sensitivity score (DSS), CellTox Green (DSS (AUC-based score)); higher = stronger drug effect (viability inhibition or cytotoxicity); extreme values may be limits of the assay; conditions: incubation time: 72 h
Outline: (§3)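 Normalisation on every plate relied on 0.1 % DMSO and a positive kill control. The plates, 384-well format, held compound at 5 concentrations 10-fold apart across a compound-specific 10,000-fold range, and breast cancer cell lines in 20 µl suspension were incubated on them for 72 h before CellTox Green and then CellTiter-Glo readings. The drug sensitivity score derives from the area under the fitted dose-response curve.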

[5] = system: Hs578T; assay: as above; conditions: incubation time: 72 h
Outline: as §3

[6] = system: MDA-MB-231; assay: as above; conditions: incubation time: 72 h
Outline: as §3

[7] = system: BT-474; conditions: 72 h
Outline: (§4)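 Per-plate normalisation used 0.1 % DMSO and a positive kill control. Breast cancer cell lines (20 µl suspension) were seeded into 384-well plates containing compound at 5 concentrations in 10-fold steps across a compound-specific 10,000-fold range, incubated for 72 h, and read first for CellTox Green fluorescence (485/520 nm), then for CellTiter-Glo luminescence. EC50 was fitted from the dose-response curves and censored at the top concentration.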

[8] = system: BT-549; conditions: 72 h
Outline: as §4

[9] = system: CAL-148; conditions: 72 h
Outline: as §4

[10] = system: CAL-51; conditions: 72 h
Outline: as §4

[11] = system: CAL-85-1; conditions: 72 h
Outline: as §4

[12] = system: DU-4475; conditions: 72 h
Outline: as §4

[13] = system: HCC1143; conditions: 72 h
Outline: as §4

[14] = system: HCC1599; conditions: 72 h
Outline: as §4

[15] = system: HCC1937; conditions: 72 h; remark: listed apart in the source
Outline: as §4

[16] = system: HDQ-P1; conditions: 72 h
Outline: as §4

[17] = system: Hs578T; conditions: 72 h; remark: listed apart in the source
Outline: as §4

[18] = system: MCF-10A; conditions: 72 h
Outline: as §4

[19] = system: MDA-MB-231; conditions: 72 h
Outline: as §4

[20] = system: MDA-MB-436; conditions: 72 h; remark: listed apart in the source
Outline: as §4

[21] = system: MDA-MB-453; conditions: 72 h
Outline: as §4

[22] = system: MFM-223; conditions: 72 h
Outline: as §4

[23] = system: SK-BR-3; conditions: 72 h
Outline: as §4

[24] = system: CAL-85-1; conditions: 72 h; remark: listed apart in the source
Outline: as §1

[25] = system: DU-4475; conditions: 72 h; remark: listed apart in the source
Outline: as §1

[26] = system: HDQ-P1; conditions: 72 h; remark: listed apart in the source
Outline: as §1

[27] = system: MDA-MB-453; conditions: 72 h; remark: listed apart in the source
Outline: as §1

[28] = system: BT-474; conditions: 72 h; remark: listed apart in the source
Outline: as §1

[29] = system: BT-549; conditions: 72 h; remark: listed apart in the source
Outline: as §1

[30] = system: CAL-120; conditions: 72 h
Outline: as §1

[31] = system: HCC1143; conditions: 72 h; remark: listed apart in the source
Outline: as §1

[32] = system: HCC1599; conditions: 72 h; remark: listed apart in the source
Outline: as §1

[33] = system: Hs578T; conditions: 72 h; remark: listed apart in the source
Outline: as §1

[34] = system: MDA-MB-231; conditions: 72 h; remark: listed apart in the source
Outline: as §1

[35] = system: MDA-MB-468; conditions: 72 h
Outline: as §1

[36] = system: MFM-223; conditions: 72 h; remark: listed apart in the source
Outline: as §1

[37] = system: SK-BR-3; conditions: 72 h; remark: listed apart in the source
Outline: as §1

[38] = system: BT-474; conditions: 72 h; remark: listed apart in the source
Procedure: as §2

[39] = system: BT-549; conditions: 72 h; remark: listed apart in the source
Procedure: as §2

[40] = system: CAL-148; conditions: 72 h; remark: listed apart in the source
Procedure: as §2

[41] = system: CAL-51; conditions: 72 h; remark: listed apart in the source
Procedure: as §2

[42] = system: CAL-85-1; conditions: 72 h; remark: listed apart in the source
Procedure: as §2

[43] = system: HCC1143; conditions: 72 h; remark: listed apart in the source
Procedure: as §2

[44] = system: MCF-10A; conditions: 72 h; remark: listed apart in the source
Procedure: as §2

[45] = system: MDA-MB-231; conditions: 72 h; remark: listed apart in the source
Procedure: as §2

[46] = system: MDA-MB-468; conditions: 72 h; remark: listed apart in the source
Procedure: as §2

[47] = system: MFM-223; conditions: 72 h; remark: listed apart in the source
Procedure: as §2

EC50, CellTiter-Blue viability [1]: 3920 nM | EC50, CellTiter-Blue viability [2]: 58.8 nM
Structure (SMILES): CS(=O)(=O)c1ccc(C(=O)Nc2ccc(Cl)c(-c3ccccn3)c2)c(Cl)c1 [Vismodegib]
EC50, CellTox Green [3]: > 10000 nM | drug sensitivity score [4]: 0 | drug sensitivity score [5]: 1.09 | drug sensitivity score [6]: 0

EC50, CellTiter-Glo [7]: 12 nM | EC50, CellTiter-Glo [8]: 1.94 nM | EC50, CellTiter-Glo [13]: 8.69 nM | EC50, CellTiter-Glo [14]: 35.9 nM | EC50, CellTiter-Glo [15]: 4.61 nM | EC50, CellTiter-Glo [19]: 12.7 nM | EC50, CellTiter-Glo [20]: 7.89 nM | EC50, CellTiter-Glo [21]: 18.4 nM | EC50, CellTiter-Glo [23]: 14.1 nM | EC50, CellTiter-Blue viability [27]: 1.9 nM | EC50, CellTiter-Blue viability [28]: 16.1 nM | EC50, CellTiter-Blue viability [29]: 1.27 nM | EC50, CellTiter-Blue viability [31]: 1.52 nM | EC50, CellTiter-Blue viability [32]: 8.18 nM | EC50, CellTiter-Blue viability [1]: 2.17 nM | EC50, CellTiter-Blue viability [34]: 1.35 nM | EC50, CellTiter-Blue viability [2]: 6.66 nM | EC50, CellTiter-Blue viability [35]: 1.54 nM | EC50, CellTiter-Blue viability [37]: 2.91 nM
Structure (SMILES): Cc1c2oc3c(C)ccc(C(=O)N[C@@H]4C(=O)N[C@H](C(C)C)C(=O)N5CCC[C@H]5C(=O)N(C)CC(=O)N(C)[C@@H](C(C)C)C(=O)O[C@@H]4C)c3nc-2c(C(=O)N[C@@H]2C(=O)N[C@H](C(C)C)C(=O)N3CCC[C@H]3C(=O)N(C)CC(=O)N(C)[C@@H](C(C)C)C(=O)O[C@@H]2C)c(N)c1=O [Dactinomycin]
EC50, CellTiter-Glo [9]: 1.56 nM | EC50, CellTiter-Glo [10]: 5.11 nM | EC50, CellTiter-Glo [11]: 9.71 nM | EC50, CellTiter-Glo [12]: 2.98 nM | EC50, CellTiter-Glo [16]: 2.14 nM | EC50, CellTiter-Glo [17]: 11.1 nM | EC50, CellTiter-Glo [18]: 8.54 nM | EC50, CellTiter-Glo [22]: 35.9 nM | EC50, CellTiter-Blue viability [24]: 2.03 nM | EC50, CellTiter-Blue viability [25]: 0.72 nM | EC50, CellTiter-Blue viability [26]: 1.67 nM | EC50, CellTiter-Blue viability [30]: 1.09 nM | EC50, CellTiter-Blue viability [33]: 0.99 nM | EC50, CellTiter-Blue viability [36]: 14.8 nM | EC50, CellTox Green [38]: 354 nM | EC50, CellTox Green [39]: 5.04 nM | EC50, CellTox Green [40]: 1.44 nM | EC50, CellTox Green [41]: 2.1 nM | EC50, CellTox Green [42]: 22.2 nM | EC50, CellTox Green [43]: 167 nM | EC50, CellTox Green [3]: 30.5 nM | EC50, CellTox Green [44]: 27 nM | EC50, CellTox Green [45]: 2.54 nM | EC50, CellTox Green [46]: 43.6 nM | EC50, CellTox Green [47]: 93.9 nM | drug sensitivity score [4]: 0 | drug sensitivity score [5]: 12.5 | drug sensitivity score [6]: 20.5

EC50, CellTiter-Blue viability [27]: 3640 nM | EC50, CellTiter-Blue viability [28]: 4450 nM | EC50, CellTiter-Blue viability [29]: 2770 nM | EC50, CellTiter-Blue viability [1]: 3980 nM | EC50, CellTiter-Blue viability [34]: 2060 nM | EC50, CellTiter-Blue viability [2]: 3530 nM | EC50, CellTiter-Blue viability [35]: 3040 nM | EC50, CellTiter-Blue viability [37]: 2470 nM
Structure (SMILES): CN1CCC(COc2cnc(-c3cccc(Cn4nc(-c5cccc(C#N)c5)ccc4=O)c3)nc2)CC1
EC50, CellTiter-Blue viability [24]: 5150 nM | EC50, CellTiter-Blue viability [25]: 5890 nM | EC50, CellTiter-Blue viability [26]: 4970 nM | EC50, CellTiter-Blue viability [30]: 4950 nM | EC50, CellTiter-Blue viability [36]: 6270 nM | drug sensitivity score [4]: 0 | drug sensitivity score [6]: 0
